According to US20060135432A1, “Agonists and antagonists of conadotropin-releasing hormone-2, and use thereof” (priority 2002, published 2006):
Where a SMILES comes first, the peptide text is derived from it. [ ]: non-standard residue; d: D form. dPhe(4-Cl) = N[C@H](Cc1ccc(Cl)cc1)C(=O)O; d2Nal = N[C@H](Cc1ccc2ccccc2c1)C(=O)O; dCit = NC(=O)NCCC[C@@H](N)C(=O)O; d3Pal = N[C@H](Cc1cccnc1)C(=O)O; pGlu = O=C1CC[C@@H](C(=O)O)N1

Columns and labels:
Primate GnRH-2 receptor [1] = experiment: c-fos-luc luciferase activation in CV-1 cells expressing Primate GnRH-2 receptor; format: cell-based
Method: (§1) Complimentary DNA (cDNA) for a Primate GnRH-2 receptor was obtained from a CV-1 cell genome. […] Plasmids having Primate GnRH-2 receptors where transfected into CV-1 cells. To assay the activity of the receptor, c-fos-luc where a luciferase gene is fused with a c-fos promoter was co-transfected as a probe gene. After 48 hours from transfection, the cells were treated with GnRH-2 agonists and then the activity of luciferase was assayed (Seong et al., Endocrinology vol 144 2003, 454-466).
Of the GnRH-2 receptors, [D-Ala^6]GnRH-2 performed excellently, showing effects about 3 times that of a wild-type ligand, GnRH-2. […] When analogs where the 5th, 7th, and 8th amino acids of [D-Ala^6]GnRH-2 are substituted were used, it was observed that their effects were weaker than [D-Ala^6]GnRH-2, and therefore it can be seen that it is important to maintain His, Trp, and Tyr that are found at the 5th, 7th, and 8th positions of GnRH-2 as they are (FIG. 3b).

rat GnRHR [2] = target: T1, rat GnRHR (Rattus norvegicus, UniProt P30969); experiment: I125-GnRH-2 competitive ligand-receptor binding, membranes of GH3 cells expressing rat GnRHR; settings: competition with I125-GnRH-2, 4 °C, 16 hours; read-out: Binding affinity (log IC50 value) (converted)
T1 construct: expressed in transfected cells; host or cells: GH3 cells, retroviral infection
T1 sequence (P30969 1-327): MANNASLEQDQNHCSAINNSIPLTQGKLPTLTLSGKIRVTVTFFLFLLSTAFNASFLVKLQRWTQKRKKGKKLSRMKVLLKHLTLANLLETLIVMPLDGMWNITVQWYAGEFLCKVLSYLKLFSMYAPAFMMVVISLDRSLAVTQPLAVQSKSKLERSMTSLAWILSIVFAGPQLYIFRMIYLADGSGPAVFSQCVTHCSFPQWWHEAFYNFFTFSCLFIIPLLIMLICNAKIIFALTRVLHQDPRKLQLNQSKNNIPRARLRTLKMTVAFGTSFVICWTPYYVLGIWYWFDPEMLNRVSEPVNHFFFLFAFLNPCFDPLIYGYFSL
Method: To determine the binding affinity between GnRH and GnRH receptors, GnRH-2 was radiolabeled with I^125. […] After 48 hours, the cells were homogenized to obtain cellular membranes, which were then dissolved in binding buffer (40 mM Tris, pH 7.4, 2 mM MgCl2). 20 μg of membrane proteins were reacted with I^125-GnRH-2 at 4° C. for 16 hours. […] After the reaction was completed, 1^125-GnRH-2 bound to the receptors was filtered using a Brandel harvester, and cpm was measured using a y-counter.

rat GnRHR [3] = target: T1, rat GnRHR; experiment: Inositol phosphate (IP) production in GH3 cells expressing rat GnRHR; format: cell-based
Excerpt: The GnRH receptor, a membrane protein connected with the G protein, activates the G protein when activated by a ligand, and the activated G protein activates phospholipase C and thereby the synthesis of inositol phosphate (IP), which is the second transmitter in cells, is increased. Based on this principle, the activity of a receptor can be investigated by measuring the amount of IP within cells. GH3 cell lines were obtained from the Cell Line Bank at the Cancer Research Center, Seoul National University College of Medicine, located in Seoul, Republic of Korea. The GH3 cell lines were infected with retroviruses comprising genes encoding […]-2, and bfGnRHR-3 which are bullfrog GnRH receptors, and rat GnRHR, and cell lines expressing each of these receptors were obtained. The GH3 cells expressing […]-3, and rat GnRHR were cultured on 12-well plates. After 24 hours, the cells were cultured again for 24 hours in a media containing no inositol, to which H^3-myoinositol was added. […] Thereafter, they were treated with GnRH having a suitable concentration, cultured at 37° C. for another 30 minutes, and then the media was eliminated. The cells were treated with 10 mM of ice-cold formic acid to terminate the reaction, and the cell extracts were mixed with Dowex anionic exchange resins. These resins were washed with distilled water, IP was extracted with 1 M ammonium formate/0.1 M formic acid, and cpm (count per minute) was determined. The GH3 cell lines were infected with retroviruses comprising genes encoding […]-2, and bfGnRHR-3 which are bullfrog GnRH receptors, and rat GnRHR, and cell lines expressing each of these receptors were obtained.

[4] = system: male rat (Sprague Dawley); experiment: Serum LH and testosterone after injection into male rat (radioimmunoassay); format: in vivo; settings: 10 μg injected
Method: Example 3: GnRH-2 Agonist-induced serum LH and testosterone levels [D-Ala^6]GnRH-2 was dissolved in saline at a concentration of 100 μg/ml, and then 10 μg of [D-Ala^6]GnRH-2 was injected into the cervix of a male rat (Sprague Dawley rat having a weight of approximately 100 g). 1, 2, 4, and 8 hours after the injection, serum was obtained from the rat. The concentration of luteinizing hormone and testosterone present in the serum was measured by radioimmunoassay.

bfGnRHR = experiment: IP production in cells expressing bfGnRHR (bullfrog receptors taken together); format: cell-based
Method: GH3 cell lines were obtained from the Cell Line Bank at the Cancer Research Center, Seoul National University College of Medicine, located in Seoul, Republic of Korea. The GH3 cell lines were infected with retroviruses comprising genes encoding bfGnRHR-1, bfGnRHR-2, and bfGnRHR-3 which are bullfrog GnRH receptors, and rat GnRHR, and cell lines expressing each of these receptors were obtained. The GH3 cells expressing bfGnRHR-1, bfGnRHR-2, bfGnRHR-3, and rat GnRHR were cultured on 12-well plates. After 24 hours, the cells were cultured again for 24 hours in a media containing no inositol, to which H^3-myoinositol was added. The resultant cells were washed with buffer A (140 mM NaCl, 20 mM HEPES, 4 mM KCl, 8 mM D-Glucose, 1 mM MgCl2, 1 mM CaCl2, 1 mg/ml BSA) and then cultured in buffer A containing 10 mM LiCl at 37°C. for 30 minutes. Thereafter, they were treated with GnRH having a suitable concentration, cultured at 37° C. for another 30 minutes, and then the media was eliminated. The cells were treated with 10 mM of ice-cold formic acid to terminate the reaction, and the cell extracts were mixed with Dowex anionic exchange resins. These resins were washed with distilled water, IP was extracted with 1 M ammonium formate/0.1 M formic acid, and cpm (count per minute) was determined. […]

bfGnRHR-1 = experiment: Inositol phosphate (IP) production in GH3 cells expressing bfGnRHR-1; format: cell-based, bullfrog
Excerpt: The GnRH receptor, a membrane protein connected with the G protein, activates the G protein when activated by a ligand, and the activated G protein activates phospholipase C and thereby the synthesis of inositol phosphate (IP), which is the second transmitter in cells, is increased. Based on this principle, the activity of a receptor can be investigated by measuring the amount of IP within cells. GH3 cell lines were obtained from the Cell Line Bank at the Cancer Research Center, Seoul National University College of Medicine, located in Seoul, Republic of Korea. The GH3 cell lines were infected with retroviruses comprising genes encoding […]-2, and bfGnRHR-3 which are bullfrog GnRH receptors, and rat GnRHR, and cell lines expressing each of these receptors were obtained. The GH3 cells expressing […]-3, and rat GnRHR were cultured on 12-well plates. After 24 hours, the cells were cultured again for 24 hours in a media containing no inositol, to which H^3-myoinositol was added. […] Thereafter, they were treated with GnRH having a suitable concentration, cultured at 37° C. for another 30 minutes, and then the media was eliminated. […] These resins were washed with distilled water, IP was extracted with 1 M ammonium formate/0.1 M formic acid, and cpm (count per minute) was determined. […]

TSU-Pri cells = experiment: Binding of radiolabeled GnRH to TSU-Pri prostate cancer cells; parameters: species or system human; settings: room temperature, 6 hours
Method: TSU-Pri, which is one of the prostate cancer cell lines, was cultured along with the radiolabeled I^125GnRH-1 and I^125GnRH-2. […] The radiolabeled GnRH and the cells were cultured at room temperature for 6 hours, and then washed with PBS (phosphate-buffered saline) several times to eliminate the unbound GnRH. Thereafter, the cells were isolated and radioactivity from the cells was measured using a y-counter.

Primate GnRH-2 receptor [5] = experiment: Inhibition of GnRH-2-induced c-fos-luc luciferase activity in cells expressing Primate GnRH-2 receptor; format: cell-based; settings: treated at the same time as GnRH-2
Method: as §1
In the same manner as in 2-3 above, Primate GnRH-2 receptors were co-transfected along with c-fos-luc reporter genes, and after 48 hours, GnRH-2 and GnRH-2 antagonists were treated thereinto at the same time and then the effect of GnRH-2 antagonists was observed.

rat GnRHR [6] = target: T1, rat GnRHR; experiment: Inhibition of GnRH-1-induced IP production in GH3 cells expressing rat GnRHR; format: cell-based
Method: GH3 cell lines were obtained from the Cell Line Bank at the Cancer Research Center, Seoul National University College of Medicine, located in Seoul, Republic of Korea. The GH3 cell lines were infected with retroviruses comprising genes encoding bfGnRHR-1, bfGnRHR-2, and bfGnRHR-3 which are bullfrog GnRH receptors, and rat GnRHR, and cell lines expressing each of these receptors were obtained. The GH3 cells expressing bfGnRHR-1, bfGnRHR-2, bfGnRHR-3, and rat GnRHR were cultured on 12-well plates. After 24 hours, the cells were cultured again for 24 hours in a media containing no inositol, to which H^3-myoinositol was added. The resultant cells were washed with buffer A (140 mM NaCl, 20 mM HEPES, 4 mM KCl, 8 mM D-Glucose, 1 mM MgCl2, 1 mM CaCl2, 1 mg/ml BSA) and then cultured in buffer A containing 10 mM LiCl at 37°C. for 30 minutes. Thereafter, they were treated with GnRH having a suitable concentration, cultured at 37° C. for another 30 minutes, and then the media was eliminated. The cells were treated with 10 mM of ice-cold formic acid to terminate the reaction, and the cell extracts were mixed with Dowex anionic exchange resins. These resins were washed with distilled water, IP was extracted with 1 M ammonium formate/0.1 M formic acid, and cpm (count per minute) was determined.
However, Trptorelix-1 could reduce the production of IP induced by 1 nM GnRH-2, in a concentration-dependent manner (FIG. 6a to FIG. 6c).

bullfrog GnRH receptors = experiment: Antagonist effect on IP production in GH3 cells expressing bullfrog GnRH receptors (bfGnRHR-2 and bfGnRHR-3 together); format: cell-based; settings: GH3 cells expressing bfGnRHR-2 and bfGnRHR-3, no GnRH-2
Excerpt: In summary, it is concluded that Trptorelix is a very specific antagonist for GnRH-2. GH3 cell lines were obtained from the Cell Line Bank at the Cancer Research Center, Seoul National University College of Medicine, located in Seoul, Republic of Korea. The GH3 cell lines were infected with retroviruses comprising genes encoding […]-2, and bfGnRHR-3 which are bullfrog GnRH receptors, and rat GnRHR, and cell lines expressing each of these receptors were obtained. The GH3 cells expressing […]-3, and rat GnRHR were cultured on 12-well plates. After 24 hours, the cells were cultured again for 24 hours in a media containing no inositol, to which H^3-myoinositol was added. The resultant cells were washed with buffer A (140 mM NaCl, 20 mM HEPES, 4 mM KCl, 8 mM D-Glucose, 1 mM MgCl2, 1 mM CaCl2, 1 mg/ml BSA) and then cultured in buffer A containing 10 mM LiCl at 37°C. for 30 minutes. Thereafter, they were treated with GnRH having a suitable concentration, cultured at 37° C. for another 30 minutes, and then the media was eliminated. The cells were treated with 10 mM of ice-cold formic acid to terminate the reaction, and the cell extracts were mixed with Dowex anionic exchange resins. These resins were washed with distilled water, IP was extracted with 1 M ammonium formate/0.1 M formic acid, and cpm (count per minute) was determined.

[7] = male rat about 100 g, 1, 2, 4, 8 hours

Row | IC50 (rat GnRHR [2]) [nM] | EC50 (rat GnRHR [3]; GH3 cells, 30 min, given as log EC50 (negative values)) [nM] | sensitivity compared with GnRH-1 (rat GnRHR [3]; rat GnRHR) | IC50 (rat GnRHR [6]) [nM] | fold lower effect than Cetrorelix (rat GnRHR [6]; rat GnRH receptors) [fold] | SMILES | effect, times that of wild-type ligand GnRH-2 (Primate GnRH-2 receptor [1]) | time of testosterone peak point after injection ([4]; male rat) [h] | serum luteinizing hormone (LH) [4, 7] | serum testosterone [4, 7] | fold higher sensitivity than GnRH-1 (bfGnRHR) | fold higher sensitivity than GnRH-2 (bfGnRHR) | concentration activating bfGnRHR-1, fold lower than GnRH-2 (bfGnRHR-1) [fold] | effect of unradiolabeled competitor on binding of radiolabeled GnRH-2 to TSU-Pri cells (TSU-Pri cells) | effect on luciferase activity induced by GnRH-2 (Primate GnRH-2 receptor [5]) | IP production by the antagonist alone (bullfrog GnRH receptors)
1 | 141 | 3.24 | a sensitivity lower than 10-fold | – | – | C[C@@H](NC(=O)[C@H](Cc1c[nH]cn1)NC(=O)[C@H](CO)NC(=O)[C@H](Cc1c[nH]c2ccccc12)NC(=O)[C@H](Cc1c[nH]cn1)NC(=O)[C@@H]1CCC(=O)N1)C(=O)N[C@@H](Cc1c[nH]c2ccccc12)C(=O)N[C@@H](Cc1ccc(O)cc1)C(=O)N1CCC[C@H]1C(=O)NCC(N)=O [[D-Ala^6]GnRH-2, p-Glu-His-Trp-Ser-His-D-Ala-Trp-Tyr-Pro-GlyNH2] ([pGlu]HWSH[dA]WYPG-NH2) | about 3 times | 4 | an increase of luteinizing hormone (LH) was observed in only one hour | began to rapidly increase from 2 hours after the injection | 40-20,000 fold | 2.5-10 fold | ~8 | reduced in a concentration-dependent manner | – | –
2 | – | – | – | 0.537 | ~60 | CC(=O)N[C@H](Cc1ccc2ccccc2c1)C(=O)N[C@H](Cc1ccc(Cl)cc1)C(=O)N[C@H](Cc1cccnc1)C(=O)N[C@@H](CO)C(=O)N[C@@H](Cc1ccc(O)cc1)C(=O)N[C@H](CCCNC(N)=O)C(=O)N[C@@H](Cc1c[nH]c2ccccc12)C(=O)N[C@@H](Cc1ccc(O)cc1)C(=O)N1CCC[C@H]1C(=O)N[C@H](C)C(N)=O [Trptorelix-1, Ac-D2Nal-(4Cl)D-Phe-D-3Pal-Ser-Tyr-D-Cit-Trp-Tyr-Pro-DAlaNH2] (Ac-[d2Nal][dPhe(4-Cl)][d3Pal]SY[dCit]WYP[dA]-NH2) | – | – | – | – | – | – | – | – | reduced in a concentration-dependent manner | production of IP was not observed
